Assays:
[1] = target: T1, BRD4 (BDI_K57-E168) (Homo sapiens, UniProt O60885); experiment: TR-FRET bromodomain binding assay, BRD4 first bromodomain; conditions: His-tagged BD1, Alexa647-labeled probe 100 nM; Ki calculated from IC50
T1 construct: BD1: amino acids K57-E168; made in house
In short: (§1)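 Competition of compound (50 μM-0.85 nM, 2% DMSO) against an Alexa647-labelled BET-inhibitor probe, 100 nM for BDI or 30 nM for BDII, on 8 nM His-BRD4 bromodomain detected by 1 nM Eu-anti-His; 20 mM sodium phosphate pH 6.0, 1 h room temperature. Normalised to unlabelled-probe controls; IC50 converted to Ki.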

[2] = target: T2, BRD4 (BDII_E352-M457) (Homo sapiens, UniProt O60885); experiment: TR-FRET bromodomain binding assay, BRD4 second bromodomain; conditions: His-tagged BD2, Alexa647-labeled probe 30 nM; Ki calculated from IC50
T2 construct: made in house
In short: as §1

[3] = test system: breast cancer cell line MX-1; experiment: MX-1 cell line proliferation assay; type: cell-based; conditions: Homo sapiens, MX1, 72 h, MX-1 cells, 3-day proliferation assay, Cell Titer Glo; read-out: Cellular proliferation: EC50
Description: The impact of compounds of the Examples on cancer cell proliferation was determined using the breast cancer cell line MX-1 (ATCC) in a 3-day proliferation assay and the data are reported in Table 1. MX-1 cells were maintained in RPMI 1640 medium (Sigma) supplemented with 10% FBS at 37° C. and an atmosphere of 5% CO2. For compound testing, MX-1 cells were plated in 96-well black bottom plates at a density of 5000 cells/well in 90 μL of culture media and incubated at 37° overnight to allow cell adhesion and spreading. Compound dilution series were prepared in DMSO via a 3-fold serial dilution from 3 mM to 0.1 μM. The DMSO dilution series were then diluted 1:100 in phosphate buffered saline, and 10 μL of the resulted solution were added to the appropriate wells of the MX-1 cell plate. The final compound concentrations in the wells were 3, 1, 0.3, 0.1, 0.03, 0.01, 0.003, 0.001, 0.0003 and 0.0001 μM.
Luminescence readings from the Cell Titer Glo assay were normalized to the DMSO treated cells and analyzed using the GraphPad Prism software with sigmoidal curve fitting to obtain EC50s. The minimum significant ratio (MSR) was determined to evaluate assay reproducibility (Eastwood et al., (2006) J Biomol Screen, 11: 253-261).

| SMILES | Ki [1] [nM] | Ki [2] [nM] | EC50 [3] [nM] |
| --- | --- | --- | --- |
| Cc1[nH]c(-c2ccccc2NC2CCOCC2)cc1C(N)=O [Example 70, 2-methyl-5-[2-(tetrahydro-2H-pyran-4-ylamino)phenyl]-1H-pyrrole-3-carboxamide] | 434 | 4290 | > 3000 |
| Cc1[nH]c(-c2ccccc2NCC2CCN(C(=O)OC(C)(C)C)C2)cc1C(N)=O (stereo not drawn) [Example 40, tert-butyl 3-({[2-(4-carbamoyl-5-methyl-1H-pyrrol-2-yl)phenyl]amino}methyl)pyrrolidine-1-carboxylate] | 212 | 5580 | > 10000 |
| Cc1[nH]c(-c2ccccc2NC[C@H]2CC[C@H](NC(=O)OC(C)(C)C)CC2)cc1C(N)=O [Example 46, tert-butyl [trans-4-({[2-(4-carbamoyl-5-methyl-1H-pyrrol-2-yl)phenyl]amino}methyl)cyclohexyl]carbamate] | 426 | 16300 | 4950 |
| Cc1[nH]c(-c2ccccc2Oc2ccc(-n3ccnc3)cc2)cc1C(N)=O [Example 135, 5-{2-[4-(1H-imidazol-1-yl)phenoxy]phenyl}-2-methyl-1H-pyrrole-3-carboxamide] | 355 | 1860 | > 10000 |
| Cc1[nH]c(-c2cccc(-c3cccc(CN4CCN(C)CC4)c3)c2)cc1C(N)=O [Example 158, 2-methyl-5-{3′-[(4-methylpiperazin-1-yl)methyl]biphenyl-3-yl}-1H-pyrrole-3-carboxamide] | 1500 | 2140 | 7750 |
| CCCCNc1ccccc1-c1cc(C(N)=O)c(C)[nH]1 [Example 27, 5-[2-(butylamino)phenyl]-2-methyl-1H-pyrrole-3-carboxamide] | 384 | 1480 | 1300 |
| Cc1[nH]c(-c2ccccc2NC2CCCCC2F)cc1C(N)=O (stereo not drawn) [Example 75, 5-{2-[(2-fluorocyclohexyl)amino]phenyl}-2-methyl-1H-pyrrole-3-carboxamide] | 37.6 | 225 | 433 |
| Cc1[nH]c(-c2ccccc2N(Cc2ccc(OCCCN(C)C)cc2)CC2CCCC2)cc1C(N)=O [Example 57, 5-{2-[(cyclopentylmethyl){4-[3-(dimethylamino)propoxy]benzyl}amino]phenyl}-2-methyl-1H-pyrrole-3-carboxamide] | 392 | 1900 | > 3000 |
| Cc1[nH]c(-c2ccccc2NCC2CCCC2)cc1C(N)=O [Example 14, 5-{2-[(cyclopentylmethyl)amino]phenyl}-2-methyl-1H-pyrrole-3-carboxamide] | 209 | 722 | 465 |
| Cc1[nH]c(-c2ccccc2NCC2CCNCC2)cc1C(N)=O [Example 43, 2-methyl-5-{2-[(piperidin-4-ylmethyl)amino]phenyl}-1H-pyrrole-3-carboxamide] | 469 | 11000 | > 10000 |
| Cc1[nH]c(-c2ccccc2-n2cnc3ccc(O)cc32)cc1C(N)=O [Example 145, 5-[2-(6-hydroxy-1H-benzimidazol-1-yl)phenyl]-2-methyl-1H-pyrrole-3-carboxamide] | 1190 | 3920 | > 10000 |
| Cc1[nH]c(-c2ccccc2NC2CCSCC2)cc1C(N)=O [Example 68, 2-methyl-5-[2-(tetrahydro-2H-thiopyran-4-ylamino)phenyl]-1H-pyrrole-3-carboxamide] | 151 | 2590 | 1130 |
| Cc1[nH]c(-c2ccccc2NC[C@H]2CC[C@@H](N)CC2)cc1C(N)=O [Example 48, 5-(2-{[(cis-4-aminocyclohexyl)methyl]amino}phenyl)-2-methyl-1H-pyrrole-3-carboxamide] | 224 | 6220 | 9580 |
| Cc1[nH]c(-c2ccccc2NS(=O)(=O)Cc2ccccc2)cc1C(N)=O [Example 83, 5-{2-[(benzylsulfonyl)amino]phenyl}-2-methyl-1H-pyrrole-3-carboxamide] | 237 | 653 | > 3000 |
